Assays:
Nucleic Acid [1] = test: Ratio of drug level in tumor to brain in S180 tumor-bearing mouse at 8 to 10 uCi, iv at 60 mins by gamma counting; type: ADME, organism-based; settings: in vivo, 1 h
Nucleic Acid [2] = test: Ratio of drug level in tumor to brain in S180 tumor-bearing mouse at 8 to 10 uCi, iv at 120 mins by gamma counting; type: ADME, organism-based; settings: in vivo, 2 h
Nucleic Acid [3] = test: Ratio of drug level in tumor to blood in S180 tumor-bearing mouse at 8 to 10 uCi, iv at 60 mins by gamma counting; type: ADME, organism-based; settings: tumour, 1 h
Nucleic Acid [4] = test: Ratio of drug level in tumor to muscle in S180 tumor-bearing mouse at 8 to 10 uCi, iv at 5 mins by gamma counting; type: ADME, organism-based; settings: in vivo
Blood [5] = test: Biodistribution in S180 tumor-bearing mouse blood at 8 to 10 uCi, iv after 60 mins by gamma counting; type: ADME, organism-based; settings: in vivo, 1 h
Spleen [6] = test: Biodistribution in S180 tumor-bearing mouse spleen at 8 to 10 uCi, iv after 30 mins by gamma counting; type: ADME, organism-based; settings: in vivo, 0.5 h
Liver [7] = test: Biodistribution in S180 tumor-bearing mouse liver at 8 to 10 uCi, iv after 60 mins by gamma counting; type: ADME, organism-based; settings: in vivo, 1 h
Spleen [8] = test: Biodistribution in S180 tumor-bearing mouse spleen at 8 to 10 uCi, iv after 120 mins by gamma counting; type: ADME, organism-based; settings: in vivo, 2 h
Heart [9] = test: Biodistribution in S180 tumor-bearing mouse heart at 8 to 10 uCi, iv after 5 mins by gamma counting; type: ADME, organism-based; settings: in vivo
Brain [10] = test: Biodistribution in S180 tumor-bearing mouse brain at 8 to 10 uCi, iv after 60 mins by gamma counting; type: ADME, organism-based; settings: in vivo, 1 h
[11] = Chemical stability in PBS after 2 hrs by radio-HPLC analysis at 60 degC; type: physicochemical; settings: buffer
Nucleic Acid [12] = test: Ratio of drug level in tumor to muscle in S180 tumor-bearing mouse at 8 to 10 uCi, iv at 60 mins by gamma counting; type: ADME, organism-based; settings: in vivo, 1 h
Lung [13] = test: Biodistribution in S180 tumor-bearing mouse lungs at 8 to 10 uCi, iv after 5 mins by gamma counting; type: ADME, organism-based; settings: in vivo
Heart [14] = test: Biodistribution in S180 tumor-bearing mouse heart at 8 to 10 uCi, iv after 60 mins by gamma counting; type: ADME, organism-based; settings: in vivo, 1 h
Nucleic Acid [15] = test: Ratio of drug level in tumor to brain in S180 tumor-bearing mouse at 8 to 10 uCi, iv at 30 mins by gamma counting; type: ADME, organism-based; settings: in vivo, 0.5 h
Heart [16] = test: Biodistribution in S180 tumor-bearing mouse heart at 8 to 10 uCi, iv after 120 mins by gamma counting; type: ADME, organism-based; settings: in vivo, 2 h
Stomach [17] = test: Biodistribution in S180 tumor-bearing mouse stomach at 8 to 10 uCi, iv after 5 mins by gamma counting; type: ADME, organism-based; settings: in vivo
Brain [18] = test: Biodistribution in S180 tumor-bearing mouse brain at 8 to 10 uCi, iv after 120 mins by gamma counting; type: ADME, organism-based; settings: in vivo, 2 h
Muscle tissue [19] = test: Biodistribution in S180 tumor-bearing mouse muscle at 8 to 10 uCi, iv after 60 mins by gamma counting; type: ADME, organism-based; settings: in vivo, 1 h
Liver [20] = test: Biodistribution in S180 tumor-bearing mouse liver at 8 to 10 uCi, iv after 120 mins by gamma counting; type: ADME, organism-based; settings: in vivo, 2 h
Liver [21] = test: Biodistribution in S180 tumor-bearing mouse liver at 8 to 10 uCi, iv after 5 mins by gamma counting; type: ADME, organism-based; settings: in vivo
Lung [22] = test: Biodistribution in S180 tumor-bearing mouse lung at 8 to 10 uCi, iv after 60 mins by gamma counting; type: ADME, organism-based; settings: in vivo, 1 h
Nucleic Acid [23] = test: Ratio of drug level in tumor to blood in S180 tumor-bearing mouse at 8 to 10 uCi, iv at 30 mins by gamma counting; type: ADME, organism-based; settings: tumour, 0.5 h
Stomach [24] = test: Biodistribution in S180 tumor-bearing mouse stomach at 8 to 10 uCi, iv after 60 mins by gamma counting; type: ADME, organism-based; settings: in vivo, 1 h
Brain [25] = test: Biodistribution in S180 tumor-bearing mouse brain at 8 to 10 uCi, iv after 30 mins by gamma counting; type: ADME, organism-based; settings: in vivo, 0.5 h
Liver [26] = test: Biodistribution in S180 tumor-bearing mouse liver at 8 to 10 uCi, iv after 30 mins by gamma counting; type: ADME, organism-based; settings: in vivo, 0.5 h
Muscle tissue [27] = test: Biodistribution in S180 tumor-bearing mouse muscle at 8 to 10 uCi, iv after 120 mins by gamma counting; type: ADME, organism-based; settings: in vivo, 2 h
Nucleic Acid [28] = test: Ratio of drug level in tumor to blood in S180 tumor-bearing mouse at 8 to 10 uCi, iv at 120 mins by gamma counting; type: ADME, organism-based; settings: tumour, 2 h
Spleen [29] = test: Biodistribution in S180 tumor-bearing mouse spleen at 8 to 10 uCi, iv after 5 mins by gamma counting; type: ADME, organism-based; settings: in vivo
Nucleic Acid [30] = test: Ratio of drug level in tumor to brain in S180 tumor-bearing mouse at 8 to 10 uCi, iv at 5 mins by gamma counting; type: ADME, organism-based; settings: in vivo
Blood [31] = test: Clearance in S180 tumor-bearing mouse blood at 8 to 10 uCi, iv at 120 mins; type: ADME, organism-based; settings: in vivo, 2 h
Kidney [32] = test: Biodistribution in S180 tumor-bearing mouse kidney at 8 to 10 uCi, iv after 120 mins by gamma counting; type: ADME, organism-based; settings: in vivo, 2 h
Muscle tissue [33] = test: Biodistribution in S180 tumor-bearing mouse muscle at 8 to 10 uCi, iv after 5 mins by gamma counting; type: ADME, organism-based; settings: in vivo
Blood [34] = test: Biodistribution in S180 tumor-bearing mouse blood at 8 to 10 uCi, iv after 5 mins by gamma counting; type: ADME, organism-based; settings: in vivo
Mus musculus [35] = test: Biodistribution in S180 cells xenografted in mouse tumor at 8 to 10 uCi, iv after 60 mins by gamma counting; type: ADME, organism-based, Neoplasm, CCRF S-180; settings: in vivo, 1 h
Lung [36] = test: Biodistribution in S180 tumor-bearing mouse lung at 8 to 10 uCi, iv after 30 mins by gamma counting; type: ADME, organism-based; settings: in vivo, 0.5 h
Lung [37] = test: Biodistribution in S180 tumor-bearing mouse lung at 8 to 10 uCi, iv after 120 mins by gamma counting; type: ADME, organism-based; settings: in vivo, 2 h
Brain [38] = test: Biodistribution in S180 tumor-bearing mouse brain at 8 to 10 uCi, iv after 5 mins by gamma counting; type: ADME, organism-based; settings: in vivo
Kidney [39] = test: Biodistribution in S180 tumor-bearing mouse kidneys at 8 to 10 uCi, iv after 5 mins by gamma counting; type: ADME, organism-based; settings: in vivo
Blood [40] = test: Biodistribution in S180 tumor-bearing mouse blood at 8 to 10 uCi, iv after 30 mins by gamma counting; type: ADME, organism-based; settings: in vivo, 0.5 h
Spleen [41] = test: Biodistribution in S180 tumor-bearing mouse spleen at 8 to 10 uCi, iv after 60 mins by gamma counting; type: ADME, organism-based; settings: in vivo, 1 h
Nucleic Acid [42] = test: Ratio of drug level in tumor to blood in S180 tumor-bearing mouse at 8 to 10 uCi, iv at 5 mins by gamma counting; type: ADME, organism-based; settings: tumour
Plasma = test: Metabolic stability in mouse plasma after 2 hrs by radio-HPLC analysis; type: ADME, cell-free
Nucleic Acid [43] = test: Ratio of drug level in tumor to muscle in S180 tumor-bearing mouse at 8 to 10 uCi, iv at 30 mins by gamma counting; type: ADME, organism-based; settings: in vivo, 0.5 h
Blood [44] = test: Biodistribution in S180 tumor-bearing mouse blood at 8 to 10 uCi, iv after 120 mins by gamma counting; type: ADME, organism-based; settings: in vivo, 2 h
Muscle tissue [45] = test: Biodistribution in S180 tumor-bearing mouse muscle at 8 to 10 uCi, iv after 30 mins by gamma counting; type: ADME, organism-based; settings: in vivo, 0.5 h
Mus musculus [46] = test: Biodistribution in S180 cells xenografted in mouse tumor at 8 to 10 uCi, iv after 5 mins by gamma counting; type: ADME, organism-based, Neoplasm, CCRF S-180; settings: in vivo
Heart [47] = test: Biodistribution in S180 tumor-bearing mouse heart at 8 to 10 uCi, iv after 30 mins by gamma counting; type: ADME, organism-based; settings: in vivo, 0.5 h
Nucleic Acid [48] = test: Ratio of drug level in tumor to muscle in S180 tumor-bearing mouse at 8 to 10 uCi, iv at 120 mins by gamma counting; type: ADME, organism-based; settings: in vivo, 2 h
Mus musculus [49] = test: Biodistribution in S180 cells xenografted in mouse tumor at 8 to 10 uCi, iv after 120 mins by gamma counting; type: ADME, organism-based, Neoplasm, CCRF S-180; settings: in vivo, 2 h
[50] = n-octanol-PBS partition coefficient, logP of the compound; type: physicochemical
[51] = Chemical stability in PBS after 2 hrs by radio-HPLC analysis at room temperature; type: physicochemical; settings: buffer
Stomach [52] = test: Biodistribution in S180 tumor-bearing mouse stomach at 8 to 10 uCi, iv after 30 mins by gamma counting; type: ADME, organism-based; settings: in vivo, 0.5 h
Kidney [53] = test: Biodistribution in S180 tumor-bearing mouse kidney at 8 to 10 uCi, iv after 30 mins by gamma counting; type: ADME, organism-based; settings: in vivo, 0.5 h
Mus musculus [54] = test: Biodistribution in S180 cells xenografted in mouse tumor at 8 to 10 uCi, iv after 30 mins by gamma counting; type: ADME, organism-based, Neoplasm, CCRF S-180; settings: in vivo, 0.5 h
Kidney [55] = test: Biodistribution in S180 tumor-bearing mouse kidney at 8 to 10 uCi, iv after 60 mins by gamma counting; type: ADME, organism-based; settings: in vivo, 1 h
Stomach [56] = test: Biodistribution in S180 tumor-bearing mouse stomach at 8 to 10 uCi, iv after 120 mins by gamma counting; type: ADME, organism-based; settings: in vivo, 2 h

Ratio (Nucleic Acid [1]): 9.93 | Ratio (Nucleic Acid [2]): 1.21 | Ratio (Nucleic Acid [3]): 2.5 | Ratio (Nucleic Acid [4]): 1.89 | Drug uptake (Blood [5]): 1.19 % ID/g | Drug uptake (Spleen [6]): 1.93 % ID/g | Drug uptake (Liver [7]): 4.07 % ID/g | Drug uptake (Spleen [8]): 1.04 % ID/g | Drug uptake (Heart [9]): 8.68 % ID/g | Drug uptake (Brain [10]): 0.3 % ID/g | Stability [11]: Stable | Ratio (Nucleic Acid [12]): 3.63 | Drug uptake (Lung [13]): 3.6 % ID/g | Drug uptake (Heart [14]): 1.99 % ID/g | Ratio (Nucleic Acid [15]): 1.28 | Drug uptake (Heart [16]): 1.03 % ID/g | Drug uptake (Stomach [17]): 8.56 % ID/g | Drug uptake (Brain [18]): 1.5 % ID/g | Drug uptake (Muscle tissue [19]): 0.82 % ID/g | Drug uptake (Liver [20]): 3.4 % ID/g | Drug uptake (Liver [21]): 8.75 % ID/g | Drug uptake (Lung [22]): 1.88 % ID/g | Ratio (Nucleic Acid [23]): 1.08 | Drug uptake (Stomach [24]): 4.14 % ID/g | Drug uptake (Brain [25]): 2.59 % ID/g | Drug uptake (Liver [26]): 7.63 % ID/g | Drug uptake (Muscle tissue [27]): 1.36 % ID/g | Ratio (Nucleic Acid [28]): 2.35 | Drug uptake (Spleen [29]): 0.98 % ID/g | Ratio (Nucleic Acid [30]): 0.25 | CL (Blood [31]): 90% | Drug uptake (Kidney [32]): 1.27 % ID/g | Drug uptake (Muscle tissue [33]): 0.74 % ID/g | Drug uptake (Blood [34]): 7.56 % ID/g | Drug uptake (Mus musculus [35]): 2.98 % ID/g | Drug uptake (Lung [36]): 2.99 % ID/g | Drug uptake (Lung [37]): 1.62 % ID/g | Drug uptake (Brain [38]): 5.51 % ID/g | Drug uptake (Kidney [39]): 6.35 % ID/g | Drug uptake (Blood [40]): 3.06 % ID/g | Drug uptake (Spleen [41]): 0.77 % ID/g | Ratio (Nucleic Acid [42]): 0.19 | Stability (Plasma): Stable | Ratio (Nucleic Acid [43]): 1.91 | Drug uptake (Blood [44]): 0.77 % ID/g | Drug uptake (Muscle tissue [45]): 1.74 % ID/g | Drug uptake (Mus musculus [46]): 1.4 % ID/g | Drug uptake (Heart [47]): 2.85 % ID/g | Ratio (Nucleic Acid [48]): 1.33 | Drug uptake (Mus musculus [49]): 1.81 % ID/g | logP [50]: 1.64 | Stability [51]: Stable | Drug uptake (Stomach [52]): 5.94 % ID/g | Drug uptake (Kidney [53]): 4.16 % ID/g | Drug uptake (Mus musculus [54]): 3.32 % ID/g | Drug uptake (Kidney [55]): 2.53 % ID/g | Drug uptake (Stomach [56]): 1.07 % ID/g
Structure (SMILES): C#Cc1cccc(Nc2ncnc3cc(OC)c(OCC[18F])cc23)c1

From ChEMBL document CHEMBL2057203, “Synthesis and evaluation of novel F-18 labeled 4-aminoquinazoline derivatives: potential PET imaging agents for tumor detection” (Bioorg Med Chem Lett, 2012)
